Laboratory results: US20060089378A1 (priority 2004, published 2006)
pEC50, pIC50: −log10 of the molar value. Where two headings read alike, the source gives them in different places.

Assays:
Cannabinoid CB2 Receptor = molecular target: T1, Cannabinoid CB2 Receptor (Homo sapiens, UniProt P34972); experiment: Binding assay for CB2 agonists or inverse agonists (radioligand competition, membranes of transfected SK-N-MC cells); settings: read-out: Cannabinoid CB2 Receptor Binding percent inhibition
T1 construct: expressed in transfected cells
T1 sequence (P34972 whole entry): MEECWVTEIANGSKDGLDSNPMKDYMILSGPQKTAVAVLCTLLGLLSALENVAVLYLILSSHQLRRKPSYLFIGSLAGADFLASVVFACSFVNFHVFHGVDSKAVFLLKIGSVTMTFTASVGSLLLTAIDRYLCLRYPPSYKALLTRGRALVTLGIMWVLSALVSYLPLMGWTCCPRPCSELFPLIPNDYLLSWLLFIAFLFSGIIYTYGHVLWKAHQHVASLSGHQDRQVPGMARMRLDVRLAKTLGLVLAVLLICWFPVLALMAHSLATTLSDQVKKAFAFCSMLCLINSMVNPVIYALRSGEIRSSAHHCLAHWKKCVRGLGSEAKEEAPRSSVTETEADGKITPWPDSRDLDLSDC

Cannabinoid CB1 Receptor = molecular target: T2, Cannabinoid CB1 Receptor (Homo sapiens, UniProt P21554); experiment: Binding assay for CB1 agonists or inverse agonists (radioligand competition, membranes of transfected SK-N-MC cells)
T2 construct: expressed in transfected cells
T2 sequence (P21554 whole entry): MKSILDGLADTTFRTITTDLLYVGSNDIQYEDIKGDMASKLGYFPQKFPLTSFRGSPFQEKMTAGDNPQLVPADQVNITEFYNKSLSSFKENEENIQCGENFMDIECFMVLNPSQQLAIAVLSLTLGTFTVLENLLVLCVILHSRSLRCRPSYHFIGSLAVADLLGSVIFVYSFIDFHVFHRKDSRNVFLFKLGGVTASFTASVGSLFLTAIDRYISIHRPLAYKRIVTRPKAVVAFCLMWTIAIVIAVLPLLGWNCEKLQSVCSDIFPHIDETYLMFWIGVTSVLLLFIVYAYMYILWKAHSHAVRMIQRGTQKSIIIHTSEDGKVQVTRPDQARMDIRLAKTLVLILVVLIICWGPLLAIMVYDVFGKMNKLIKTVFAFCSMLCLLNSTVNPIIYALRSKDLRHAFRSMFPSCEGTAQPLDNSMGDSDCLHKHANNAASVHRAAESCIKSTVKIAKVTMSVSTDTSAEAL

CB1 receptor (human) = CB1 receptor (human) (Homo sapiens, UniProt P21554); experiment: cell-based
CB1 receptor (human), sequence (P21554 whole entry): as above

[1] = test concentration of 0.2 μM, compounds without an IC50 binding value

SMILES | inhibition at 0.2 µM (Cannabinoid CB2 Receptor) | pIC50 (Cannabinoid CB1 Receptor) | pEC50 (CB1 receptor (human)) | inhibition at 0.2 µM (Cannabinoid CB2 Receptor; [1]) | inhibition at 0.2 µM (Cannabinoid CB1 Receptor; read-out: Cannabinoid CB1 Receptor Binding percent inhibition)
COc1ccc(/C=C2\CN(C(C)=O)Cc3c(C(=O)NN4CCCCC4)nn(-c4ccc(Cl)cc4Cl)c32)cc1 [Cpd 54, (7E)-5-acetyl-1-(2,4-dichloro-phenyl)-7-(4-methoxy-benzylidene)-4,5,6,7-tetrahydro-1H-pyrazolo[4,3-c]pyridine-3-carboxylic acid piperidin-1-ylamide] | 24% | 7.40 | 8.30 |  | 
COC(=O)N1C/C(=C\c2ccc(OC)cc2)c2c(c(C(=O)NN3CCCCC3)nn2-c2ccc(Cl)cc2Cl)C1 [Cpd 55, (7E)-1-(2,4-dichloro-phenyl)-7-(4-methoxy-benzylidene)-3-(piperidin-1-ylcarbamoyl)-1,4,6,7-tetrahydro-pyrazolo[4,3-c]pyridine-5-carboxylic acid methyl ester] | 66% | 8.30 | 8.70 |  | 
CCNC(=O)N1C/C(=C\c2ccc(OC)cc2)c2c(c(C(=O)NN3CCCCC3)nn2-c2ccc(Cl)cc2Cl)C1 [Cpd 56, (7E)-1-(2,4-dichloro-phenyl)-7-(4-methoxy-benzylidene)-1,4,6,7-tetrahydro-pyrazolo[4,3-c]pyridine-3,5-dicarboxylic acid 5-ethylamide 3-piperidin-1-ylamide] | 28% | 7.70 | 8.15 |  | 
C[C@@H](NC(=O)c1nn(-c2ccc(Cl)cc2)c2c1CN(C(=O)OC(C)(C)C)C/C2=C\c1ccc(F)cc1)c1ccccc1 [Cpd 57, (7E)-1-(4-chloro-phenyl)-7-(4-fluoro-benzylidene)-3-[(1R)-1-phenyl-ethylcarbamoyl]-1,4,6,7-tetrahydro-pyrazolo[4,3-c]pyridine-5-carboxylic acid tert-butyl ester] |  | 7.52 | 7.70 | 13% | 
COc1ccc(/C=C2\CN(S(=O)(=O)N(C)C)Cc3c(C(=O)NN4CCCCC4)nn(-c4ccc(Cl)cc4Cl)c32)cc1 [Cpd 58, (7E)-1-(2,4-dichloro-phenyl)-5-dimethylsulfamoyl-7-(4-methoxy-benzylidene)-4,5,6,7-tetrahydro-1H-pyrazolo[4,3-c]pyridine-3-carboxylic acid piperidin-1-ylamide] | 53% | 7.70 | 8.52 |  | 
CCOC(=O)CN1C/C(=C\c2ccc(OC)cc2)c2c(c(C(=O)NN3CCCCC3)nn2-c2ccc(Cl)cc2Cl)C1 [Cpd 59, (7E)-[1-(2,4-dichloro-phenyl)-7-(4-methoxy-benzylidene)-3-(piperidin-1-ylcarbamoyl)-1,4,6,7-tetrahydro-pyrazolo[4,3-c]pyridin-5-yl]-acetic acid ethyl ester] | 23% | 7.40 | 7.52 |  | 
COc1ccc(/C=C2\CN(C(C)=O)Cc3c(C(=O)NC(C)c4ccccn4)nn(-c4ccc(Cl)cc4Cl)c32)cc1 (stereo not drawn) [Cpd 60, (7E)-5-acetyl-1-(2,4-dichloro-phenyl)-7-(4-methoxy-benzylidene)-4,5,6,7-tetrahydro-1H-pyrazolo[4,3-c]pyridine-3-carboxylic acid (1-pyridin-2-yl-ethyl)-amide] |  | 7.70 | 8.15 | 28% | 
CCNC(=O)N1C/C(=C\c2ccc(OC)cc2)c2c(c(C(=O)NC(C)c3ccccn3)nn2-c2ccc(Cl)cc2Cl)C1 (stereo not drawn) [Cpd 61, (7E)-1-(2,4-dichloro-phenyl)-7-(4-methoxy-benzylidene)-1,4,6,7-tetrahydro-pyrazolo[4,3-c]pyridine-3,5-dicarboxylic acid 5-ethylamide 3-[(1-pyridin-2-yl-ethyl)-amide]] | 7% | 7.70 | 8.30 |  | 
COC(=O)N1C/C(=C\c2ccc(OC)cc2)c2c(c(C(=O)NC(C)c3ccccn3)nn2-c2ccc(Cl)cc2Cl)C1 (stereo not drawn) [Cpd 62, (7E)-1-(2,4-dichloro-phenyl)-7-(4-methoxy-benzylidene)-3-(1-pyridin-2-yl-ethylcarbamoyl)-1,4,6,7-tetrahydro-pyrazolo[4,3-c]pyridine-5-carboxylic acid methyl ester] | 70% | 8.30 | 8.70 |  | 
COc1ccc(/C=C2\CN(S(C)(=O)=O)Cc3c(C(=O)NC(C)c4ccccn4)nn(-c4ccc(Cl)cc4Cl)c32)cc1 (stereo not drawn) [Cpd 63, (7E)-1-(2,4-dichloro-phenyl)-5-methanesulfonyl-7-(4-methoxy-benzylidene)-4,5,6,7-tetrahydro-1H-pyrazolo[4,3-c]pyridine-3-carboxylic acid (1-pyridin-2-yl-ethyl)-amide] | 48% | 8.22 | 8.52 |  | 
COc1ccc(/C=C2\CN(S(=O)(=O)N(C)C)Cc3c(C(=O)NC(C)c4ccccn4)nn(-c4ccc(Cl)cc4Cl)c32)cc1 (stereo not drawn) [Cpd 64, (7E)-1-(2,4-dichloro-phenyl)-5-dimethylsulfamoyl-7-(4-methoxy-benzylidene)-4,5,6,7-tetrahydro-1H-pyrazolo[4,3-c]pyridine-3-carboxylic acid (1-pyridin-2-yl-ethyl)-amide] | 62% | 8.22 | 9.00 |  | 
CCOC(=O)CN1C/C(=C\c2ccc(OC)cc2)c2c(c(C(=O)NC(C)c3ccccn3)nn2-c2ccc(Cl)cc2Cl)C1 (stereo not drawn) [Cpd 65, (7E)-[1-(2,4-dichloro-phenyl)-7-(4-methoxy-benzylidene)-3-(1-pyridin-2-yl-ethylcarbamoyl)-1,4,6,7-tetrahydro-pyrazolo[4,3-c]pyridin-5-yl]-acetic acid ethyl ester] | 39% | 8.00 | 8.05 |  | 
C[C@@H](NC(=O)c1nn(-c2ccc(Cl)cc2)c2c1CNC/C2=C\c1ccc(F)cc1)c1ccccc1 [Cpd 66, (7E)-1-(4-chloro-phenyl)-7-(4-fluoro-benzylidene)-4,5,6,7-tetrahydro-1H-pyrazolo[4,3-c]pyridine-3-carboxylic acid [(1R)-1-phenyl-ethyl]-amide] |  | 7.70 | 8.00 | 5% | 
COC(=O)N1C/C(=C\c2ccc(F)cc2)c2c(c(C(=O)N[C@H](C)c3ccccc3)nn2-c2ccc(Cl)cc2)C1 [Cpd 67, (7E)-1-(4-chloro-phenyl)-7-(4-fluoro-benzylidene)-3-[(1R)-1-phenyl-ethylcarbamoyl]-1,4,6,7-tetrahydro-pyrazolo[4,3-c]pyridine-5-carboxylic acid methyl ester] | 19% | 8.30 | 9.00 |  | 
CC(=O)N1C/C(=C\c2ccc(F)cc2)c2c(c(C(=O)N[C@H](C)c3ccccc3)nn2-c2ccc(Cl)cc2)C1 [Cpd 68, (7E)-5-acetyl-1-(4-chloro-phenyl)-7-(4-fluoro-benzylidene)-4,5,6,7-tetrahydro-1H-pyrazolo[4,3-c]pyridine-3-carboxylic acid [(1R)-1-phenyl-ethyl]-amide] | 11% | 7.70 | 8.52 |  | 
CCNC(=O)N1C/C(=C\c2ccc(F)cc2)c2c(c(C(=O)N[C@H](C)c3ccccc3)nn2-c2ccc(Cl)cc2)C1 [Cpd 69, (7E)-1-(4-chloro-phenyl)-7-(4-fluoro-benzylidene)-1,4,6,7-tetrahydro-pyrazolo[4,3-c]pyridine-3,5-dicarboxylic acid 5-ethylamide 3-{[(1R)-1-phenyl-ethyl]-amide}] | 0% | 7.52 | 8.30 |  | 
C[C@@H](NC(=O)c1nn(-c2ccc(Cl)cc2)c2c1CN(S(=O)(=O)N(C)C)C/C2=C\c1ccc(F)cc1)c1ccccc1 [Cpd 70, (7E)-1-(4-chloro-phenyl)-5-dimethylsulfamoyl-7-(4-fluoro-benzylidene)-4,5,6,7-tetrahydro-1H-pyrazolo[4,3-c]pyridine-3-carboxylic acid [(1R)-1-phenyl-ethyl]-amide] | 13% | 8.05 | 9.00 |  | 
C[C@@H](NC(=O)c1nn(-c2ccc(Cl)cc2)c2c1CN(S(C)(=O)=O)C/C2=C\c1ccc(F)cc1)c1ccccc1 [Cpd 71, (7E)-1-(4-chloro-phenyl)-7-(4-fluoro-benzylidene)-5-methanesulfonyl-4,5,6,7-tetrahydro-1H-pyrazolo[4,3-c]pyridine-3-carboxylic acid [(1R)-1-phenyl-ethyl]-amide] | 3% | 8.40 | 9.00 |  | 
CCOC(=O)CN1C/C(=C\c2ccc(F)cc2)c2c(c(C(=O)N[C@H](C)c3ccccc3)nn2-c2ccc(Cl)cc2)C1 [Cpd 72, (7E)-[1-(4-chloro-phenyl)-7-(4-fluoro-benzylidene)-3-[(1R)-1-phenyl-ethylcarbamoyl]-1,4,6,7-tetrahydro-pyrazolo[4,3-c]pyridin-5-yl]-acetic acid ethyl ester] | 17% | 8.00 | 8.30 |  | 
CC(NC(=O)c1nn(-c2ccc(Cl)cc2)c2c1CNC/C2=C\c1ccc(F)cc1)c1ccccn1 (stereo not drawn) [Cpd 75, (7E)-1-(4-chloro-phenyl)-7-(4-fluoro-benzylidene)-4,5,6,7-tetrahydro-1H-pyrazolo[4,3-c]pyridine-3-carboxylic acid (1-pyridin-2-yl-ethyl)-amide] | 0% | 6.70 | 7.40 |  | 
O=C(NN1CCCCC1)c1nn(-c2ccc(Cl)cc2)c2c1CNC/C2=C\c1ccc(F)cc1 [Cpd 76, (7E)-1-(4-chloro-phenyl)-7-(4-fluoro-benzylidene)-4,5,6,7-tetrahydro-1H-pyrazolo[4,3-c]pyridine-3-carboxylic acid piperidin-1-ylamide] | 0% |  | 7.52 |  | 48%
CCNC(=O)N1C/C(=C\c2ccc(F)cc2)c2c(c(C(=O)NC(C)c3ccccn3)nn2-c2ccc(Cl)cc2)C1 (stereo not drawn) [Cpd 77, (7E)-1-(4-chloro-phenyl)-7-(4-fluoro-benzylidene)-1,4,6,7-tetrahydro-pyrazolo[4,3-c]pyridine-3,5-dicarboxylic acid 5-ethylamide 3-[(1-pyridin-2-yl-ethyl)-amide]] | 0% | 7.10 | 8.00 |  | 
